Results: the supplement of paper PMC10307832

Experiments:
Experiment in all cases: relative viability (nuclei count vs DMSO), 5 days (fraction); higher = more cells survive
A-427 = test system: A-427
Outline: (§1)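 Nuclei were stained with Hoechst during a one-step fixation (final 0.05% Triton X-100, 1% formaldehyde, 1 ug/ml Hoechst) carried out 5 days after dosing, then counted on 4× images. The cells, lung cancer lines in 1536-well plates, had been dosed by pin tool the day after seeding with one drug alone or a fixed anchor-drug dose plus five library-drug doses (not always all listed) in √10 steps. Relative viability is the nuclei count in treated wells divided by that in vehicle wells, and each value is the median of duplicate plates.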

COR-L 105 = test system: COR-L 105
Outline: as §1

ChaGo-K-1 = test system: ChaGo-K-1
Outline: as §1

EKVX = test system: EKVX
Outline: as §1

EMC-BAC-2 = test system: EMC-BAC-2
Outline: as §1

H3255 = test system: H3255
Outline: as §1

HCC-366 = test system: HCC-366
Outline: as §1

LK-2 = test system: LK-2
Outline: as §1

LOU-NH91 = test system: LOU-NH91
Outline: as §1

NCI-H1666 = test system: NCI-H1666
Outline: as §1

NCI-H1734 = test system: NCI-H1734
Outline: as §1

NCI-H1755 = test system: NCI-H1755
Outline: as §1

NCI-H1975 = test system: NCI-H1975
Outline: as §1

NCI-H2170 = test system: NCI-H2170
Outline: as §1

NCI-H23 = test system: NCI-H23
Outline: as §1

NCI-H441 = test system: NCI-H441
Outline: as §1

NCI-H520 = test system: NCI-H520
Outline: as §1

NCI-H596 = test system: NCI-H596
Outline: as §1

PC-3 [JPC-3] = test system: PC-3 [JPC-3]
Outline: as §1

SK-MES-1 = test system: SK-MES-1
Outline: as §1

SW 900 = test system: SW 900
Outline: as §1

SMILES: Cc1sc2c(c1C)C(c1ccc(Cl)cc1)=N[C@@H](CC(=O)OC(C)(C)C)c1nnc(C)n1-2 [JQ1] + CC(=O)Nc1cccc(-n2c(=O)n(C3CC3)c(=O)c3c(Nc4ccc(I)cc4F)n(C)c(=O)c(C)c32)c1 [Trametinib] (partner 0.02 µM)
- relative viability (A-427; first compound 0.04 µM): 0.759
- relative viability (A-427; first compound 0.1265 µM): 0.843
- relative viability (A-427; first compound 0.4 µM): 0.674
- relative viability (A-427; first compound 1.265 µM): 0.466
- relative viability (A-427; first compound 4 µM): 0.52
- relative viability (COR-L 105; first compound 0.04 µM): 0.46
- relative viability (COR-L 105; first compound 0.1265 µM): 0.362
- relative viability (COR-L 105; first compound 0.4 µM): 0.377
- relative viability (COR-L 105; first compound 1.265 µM): 0.355
- relative viability (COR-L 105; first compound 4 µM): 0.357
- relative viability (ChaGo-K-1; first compound 0.04 µM): 0.943
- relative viability (ChaGo-K-1; first compound 0.1265 µM): 0.928
- relative viability (ChaGo-K-1; first compound 0.4 µM): 0.797
- relative viability (ChaGo-K-1; first compound 1.265 µM): 0.641
- relative viability (ChaGo-K-1; first compound 4 µM): 0.483
- relative viability (EKVX; first compound 0.04 µM): 0.286
- relative viability (EKVX; first compound 0.1265 µM): 0.38
- relative viability (EKVX; first compound 0.4 µM): 0.366
- relative viability (EKVX; first compound 1.265 µM): 0.432
- relative viability (EKVX; first compound 4 µM): 0.271
- relative viability (EMC-BAC-2; first compound 0.04 µM): 0.935
- relative viability (EMC-BAC-2; first compound 0.4 µM): 0.881
- relative viability (EMC-BAC-2; first compound 1.265 µM): 0.586
- relative viability (EMC-BAC-2; first compound 4 µM): 0.366
- relative viability (H3255; first compound 0.04 µM): 0.58
- relative viability (H3255; first compound 0.4 µM): 0.452
- relative viability (H3255; first compound 1.265 µM): 0.345
- relative viability (H3255; first compound 4 µM): 0.322
- relative viability (HCC-366; first compound 0.04 µM): 0.407
- relative viability (HCC-366; first compound 0.4 µM): 0.372
- relative viability (HCC-366; first compound 1.265 µM): 0.235
- relative viability (HCC-366; first compound 4 µM): 0.237
- relative viability (LK-2; first compound 0.04 µM): 0.71
- relative viability (LK-2; first compound 0.1265 µM): 0.579
- relative viability (LK-2; first compound 0.4 µM): 0.217
- relative viability (LK-2; first compound 1.265 µM): 0.163
- relative viability (LK-2; first compound 4 µM): 0.218
- relative viability (LOU-NH91; first compound 0.04 µM): 0.774
- relative viability (LOU-NH91; first compound 0.1265 µM): 0.719
- relative viability (LOU-NH91; first compound 0.4 µM): 0.603
- relative viability (LOU-NH91; first compound 1.265 µM): 0.479
- relative viability (LOU-NH91; first compound 4 µM): 0.414
- relative viability (NCI-H1666; first compound 0.04 µM): 0.92
- relative viability (NCI-H1666; first compound 0.1265 µM): 0.874
- relative viability (NCI-H1666; first compound 0.4 µM): 0.847
- relative viability (NCI-H1666; first compound 1.265 µM): 0.641
- relative viability (NCI-H1666; first compound 4 µM): 0.757
- relative viability (NCI-H1734; first compound 0.04 µM): 0.685
- relative viability (NCI-H1734; first compound 0.1265 µM): 0.688
- relative viability (NCI-H1734; first compound 0.4 µM): 0.644
- relative viability (NCI-H1734; first compound 1.265 µM): 0.462
- relative viability (NCI-H1734; first compound 4 µM): 0.491
- relative viability (NCI-H1755; first compound 0.04 µM): 0.796
- relative viability (NCI-H1755; first compound 0.1265 µM): 0.809
- relative viability (NCI-H1755; first compound 0.4 µM): 0.8
- relative viability (NCI-H1755; first compound 1.265 µM): 0.674
- relative viability (NCI-H1755; first compound 4 µM): 0.65
- relative viability (NCI-H1975; first compound 0.04 µM): 0.342
- relative viability (NCI-H1975; first compound 0.1265 µM): 0.27
- relative viability (NCI-H1975; first compound 0.4 µM): 0.244
- relative viability (NCI-H1975; first compound 1.265 µM): 0.217
- relative viability (NCI-H1975; first compound 4 µM): 0.198
- relative viability (NCI-H2170; first compound 0.04 µM): 0.861
- relative viability (NCI-H2170; first compound 0.1265 µM): 0.843
- relative viability (NCI-H2170; first compound 0.4 µM): 0.637
- relative viability (NCI-H2170; first compound 1.265 µM): 0.585
- relative viability (NCI-H2170; first compound 4 µM): 0.519
- relative viability (NCI-H23; first compound 0.04 µM): 0.348
- relative viability (NCI-H23; first compound 0.1265 µM): 0.268
- relative viability (NCI-H23; first compound 0.4 µM): 0.256
- relative viability (NCI-H23; first compound 1.265 µM): 0.201
- relative viability (NCI-H23; first compound 4 µM): 0.173
- relative viability (NCI-H441; first compound 0.04 µM): 0.476
- relative viability (NCI-H441; first compound 0.1265 µM): 0.377
- relative viability (NCI-H441; first compound 0.4 µM): 0.31
- relative viability (NCI-H441; first compound 1.265 µM): 0.175
- relative viability (NCI-H441; first compound 4 µM): 0.169
- relative viability (NCI-H520; first compound 0.04 µM): 0.565
- relative viability (NCI-H520; first compound 0.1265 µM): 0.66
- relative viability (NCI-H520; first compound 0.4 µM): 0.386
- relative viability (NCI-H520; first compound 1.265 µM): 0.391
- relative viability (NCI-H520; first compound 4 µM): 0.239
- relative viability (NCI-H596; first compound 0.04 µM): 0.776
- relative viability (NCI-H596; first compound 0.1265 µM): 0.683
- relative viability (NCI-H596; first compound 0.4 µM): 0.442
- relative viability (NCI-H596; first compound 1.265 µM): 0.338
- relative viability (NCI-H596; first compound 4 µM): 0.31
- relative viability (PC-3 [JPC-3]; first compound 0.04 µM): 0.683
- relative viability (PC-3 [JPC-3]; first compound 0.1265 µM): 0.609
- relative viability (PC-3 [JPC-3]; first compound 0.4 µM): 0.49
- relative viability (PC-3 [JPC-3]; first compound 1.265 µM): 0.475
- relative viability (PC-3 [JPC-3]; first compound 4 µM): 0.461
- relative viability (SK-MES-1; first compound 0.04 µM): 0.446
- relative viability (SK-MES-1; first compound 0.1265 µM): 0.309
- relative viability (SK-MES-1; first compound 0.4 µM): 0.32
- relative viability (SK-MES-1; first compound 1.265 µM): 0.24
- relative viability (SK-MES-1; first compound 4 µM): 0.259
- relative viability (SW 900; first compound 0.04 µM): 0.804
- relative viability (SW 900; first compound 0.1265 µM): 0.582
- relative viability (SW 900; first compound 0.4 µM): 0.532
- relative viability (SW 900; first compound 1.265 µM): 0.205
- relative viability (SW 900; first compound 4 µM): 0.204
